Measurements published in article PMC12236194, “Precision dendritic-supramolecular glycan assemblies for probing multivalent lectin interactions” (Chemical Science, 2025).

Key:
[1] = Dynamic light scattering (DLS) hydrodynamic diameter in solution; type: physicochemical; settings: H2O, 1 mM, 25 °C
Method: S3. Dynamic Light Scattering (DLS)
All measurements were conducted using a 384-well plate with individual sample volumes of 30
µL. Solutions of man-2, man-3, and man-6 were freshly prepared in H2O (1 mM). For the glycoassembly analyses, two solution conditions were used: samples prepared in H2O (5 μM), and samples prepared in mixed DMSO/H2O solutions (85% v/v, 50 μM). The concentration of each glycoassembly solution was determined by absorption spectroscopy according to ε values (M-1cm-1) reported in Section S2.2. All sample solutions were filtered through a 0.22 μm PTFE syringe filter before being added to a well. The sample plate was then centrifuged using a Fisherbrand Mini Plate Spinner Centrifuge at 2500 rpm for 20 sec, and measurements were immediately collected at 25 °C. Before data collection, images were taken of each well to confirm the absence of bubbles or visible dust particles that affect the DLS measurements. The hydrodynamic diameter (Dh) values represent the mean ± standard deviation (σ) of the hydrodynamic size averaged for three (1 sec) scans and all data were analyzed using DYNAMICS […]
S3.1.1. Measurement in H2O (1 mM)
Figure S53. DLS measurements of man -2 (H O, 1 mM).
S3.2.1. Measurement in H2O (1 mM)
Figure S54. DLS measurements of man-3 (H2O, 1 mM). […]

[2] = molecular target: monomeric Griffithsin (GRFT); set-up: method as in PMID 17340634; settings: monovalent sugar; cited from earlier work

Hydrodynamic diameter (Dh) [1] [nm]	SMILES	Kd [2] [µM]
1.8 ± 0.1	O=Cc1ccc(OCc2cc(OCc3cn(CCOCCO[C@H]4O[C@H](CO)[C@@H](O)[C@H](O)[C@@H]4O)nn3)c(OCc3cn(CCOCCO[C@H]4O[C@H](CO)[C@@H](O)[C@H](O)[C@@H]4O)nn3)c(OCc3cn(CCOCCO[C@H]4O[C@H](CO)[C@@H](O)[C@H](O)[C@@H]4O)nn3)c2)cn1 [man-3]	–
–	OC[C@H]1O[C@H](O)[C@@H](O)[C@@H](O)[C@@H]1O [α-D-mannose]	~100
1.6 ± 0.6	O=Cc1ccc(OCc2cc(OCc3cn(CCOCCO[C@H]4O[C@H](CO)[C@@H](O)[C@H](O)[C@@H]4O)nn3)cc(OCc3cn(CCOCCO[C@H]4O[C@H](CO)[C@@H](O)[C@H](O)[C@@H]4O)nn3)c2)cn1 [man-2]	–
2.4 ± 0.2	O=Cc1ccc(OCc2cc(OCc3cc(OCc4cn(CCOCCO[C@H]5O[C@H](CO)[C@@H](O)[C@H](O)[C@@H]5O)nn4)c(OCc4cn(CCOCCO[C@H]5O[C@H](CO)[C@@H](O)[C@H](O)[C@@H]5O)nn4)c(OCc4cn(CCOCCO[C@H]5O[C@H](CO)[C@@H](O)[C@H](O)[C@@H]5O)nn4)c3)cc(OCc3cc(OCc4cn(CCOCCO[C@H]5O[C@H](CO)[C@@H](O)[C@H](O)[C@@H]5O)nn4)c(OCc4cn(CCOCCO[C@H]5O[C@H](CO)[C@@H](O)[C@H](O)[C@@H]5O)nn4)c(OCc4cn(CCOCCO[C@H]5O[C@H](CO)[C@@H](O)[C@H](O)[C@@H]5O)nn4)c3)c2)cn1 [man-6]	–
